Measured values: patent US20130072517A1 (Avanir Pharmaceuticals, Inc., priority 2002, published 2013)

Key:
[1] = Clinical Study #5: concentrations in plasma of DM, DX and Q and correlation with pain intensity; assay type: in vivo, human; conditions: final visit; for Concentration in plasma, Mean / Concentration in plasma, Median: extensive metabolizers
Procedure: Subjects visited the clinic every two weeks during the four-week duration of the study and were contacted by telephone during weeks without clinic visits. At each subsequent study visit or weekly phone call, the subjects were given the Pain Intensity Rating Scale and the Pain Relief Rating Scale and were queried regarding any adverse events that might have occurred since their previous visit. Subjects were administered the Peripheral Neuropathy Quality of Life (QOL) Instrument on Days 1 and 29 (or the final visit). Blood samples were taken at the visits on Day 15 and Day 29 to determine concentrations in plasma of DM, DX, and Q.

[2] = Clinical Study #2: plasma pharmacokinetics of dextromethorphan, dextrorphan and quinidine, single and multiple dose; conditions: for AUC(0-t) / Cmax / Tmax: human, in vivo, mean; for AUC(0-t): AUC (0-12) (plasma); for Cmax: Cmax (plasma); for Tmax: Tmax (plasma)
Procedure: Descriptive statistics for each parameter, including mean, median, standard deviation, coefficient of variation, N, minimum, and maximum were calculated for all of the subjects by Day. In addition, descriptive statistics were presented by the subgroups: extensive metabolizer (EM) and poor metabolizer (PM).
The ANOVA model included the factors group (EM or PM), subject within group, day, and the interaction term day by group. The group effect was tested using the subject within group mean square, and all other main effects were tested using the residual error (error mean square). In addition, tests of the hypotheses Day 1=Day 4, Day 1=Day 8, and Day 4=Day 8 were performed.

[3] = assay type: in vivo
Excerpt: An adverse event was any unfavorable and unintended sign (including an abnormal laboratory finding, for example), symptom, or disease temporally associated with the use of a medicinal product, whether or not considered related to the medicinal product. Changes associated with normal growth and development not varying in frequency or magnitude from that ordinarily anticipated clinically are not adverse events (for example, onset of menstruation occurring at a physiologically appropriate time). Clinical adverse events were described by diagnosis and not by symptoms when possible (for example, cold or seasonal allergies, instead of “runny nose”).
The severity of adverse events was graded on a 3-point scale and reported in detail as indicated on the Case Report Form: mild—easily tolerated, causing minimal discomfort, and not interfering with normal everyday activities; moderate—sufficiently discomforting to interfere with normal everyday activities; and severe—incapacitating and/or preventing normal everyday activities.
Subjects were instructed to promptly report any adverse event. The serious adverse event was assessed for the following details: seriousness of event, start date, stop date, intensity, frequency, relationship to test drug, action taken regarding test drug, treatment required, and outcome to date. These details were recorded on the Case Report Form. Such preliminary reports were followed by detailed descriptions that included copies of hospital case reports, autopsy reports, and other documents when requested and applicable.
Blood and urine were collected at the screening visit and Day 29 for clinical chemistry, hematology, urinalysis, and pregnancy testing. In the event of an abnormal laboratory test value, the test was repeated within one week, and the subject was followed up until the value returned to the normal range and/or until an adequate explanation of the abnormality was found.
Values were obtained for systolic and diastolic blood pressure, heart rate, and respiration rate on the screening visit and all other study visits. All values outside the pre-defined ranges were flagged in the subject data listings. Electrocardiography (twelve lead) was used to obtain ventricular rate (VR), QT, Q-Tc intervals, […] (PR), and QRS duration. A blood sample (10 mL whole blood) was taken from each subject at the Screening Visit for CYP2D6 genotyping to determine which subjects were poor metabolizers of DM and which were extensive metabolizers. Blood samples were taken on Day 29 for the determination of concentrations of DM, DX, and Q in plasma. The relationship between the concentration of drug in plasma and changes in CNS-LS scores was determined, and the effect of the CYP2D6 genotype on this relationship was evaluated.

[4] = Day 1, All Subjects, 30 mg DM HBr/25 mg Q sulfate capsule every 12 hours
[5] = Day 1, EM, 30 mg DM HBr/25 mg Q sulfate capsule every 12 hours
[6] = Day 1, PM, 30 mg DM HBr/25 mg Q sulfate capsule every 12 hours
[7] = Day 4, All Subjects, 30 mg DM HBr/25 mg Q sulfate capsule every 12 hours
[8] = Day 4, EM, 30 mg DM HBr/25 mg Q sulfate capsule every 12 hours
[9] = Day 4, PM, 30 mg DM HBr/25 mg Q sulfate capsule every 12 hours
[10] = Day 8, All Subjects, 30 mg DM HBr/25 mg Q sulfate capsule every 12 hours
[11] = Day 8, EM, 30 mg DM HBr/25 mg Q sulfate capsule every 12 hours
[12] = Day 8, PM, 30 mg DM HBr/25 mg Q sulfate capsule every 12 hours

## CN1CC[C@@]23CCCC[C@@H]2[C@@H]1Cc1ccc(O)cc13 [Dextrorphan, dextrorphan]
[1]; DM/Q MTD 30 mg
  Concentration in plasma, Mean: 0.0707 µg/mL
  Concentration in plasma, Median: 0.0946 µg/mL
[1]; DM/Q MTD 60 mg
  Concentration in plasma, Mean: 0.0654 µg/mL
  Concentration in plasma, Median: 0.0582 µg/mL
[1]; DM/Q MTD 90 mg
  Concentration in plasma, Mean: 0.0884 µg/mL
  Concentration in plasma, Median: 0.0884 µg/mL
[1]; DM/Q MTD 120 mg
  Concentration in plasma, Mean: 0.1466 µg/mL
  Concentration in plasma, Median: 0.1226 µg/mL
[1]; Total, all MTDs
  Concentration in plasma, Mean: 0.1239 µg/mL
  Concentration in plasma, Median: 0.1026 µg/mL
[1]; poor metabolizer (MTD of 60 mg)
  Concentration in plasma: 0.041 µg/mL
[2]; [4]
  AUC(0-t): 0.749 µg·h/mL
  Cmax: 0.0995 µg/mL
  Tmax: 3.78 h
[2]; [5]
  AUC(0-t): 0.934 µg·h/mL
  Cmax: 0.125 µg/mL
  Tmax: 4 h
[2]; [6]
  AUC(0-t): 0.091 µg·h/mL
  Cmax: 0.0108 µg/mL
  Tmax: 3 h
[2]; [7]
  AUC(0-t): 0.742 µg·h/mL
  Cmax: 0.0699 µg/mL
  Tmax: 2.17 h
[2]; [8]
  AUC(0-t): 0.849 µg·h/mL
  Cmax: 0.0793 µg/mL
  Tmax: 2.21 h
[2]; [9]
  AUC(0-t): 0.365 µg·h/mL
  Cmax: 0.037 µg/mL
  Tmax: 2 h
[2]; [10]
  AUC(0-t): 0.896 µg·h/mL
  Cmax: 0.107 µg/mL
  Tmax: 32.7 h
[2]; [11]
  AUC(0-t): 1 µg·h/mL
  Cmax: 0.124 µg/mL
  Tmax: 41.2 h
[2]; [12]
  AUC(0-t): 0.53 µg·h/mL
  Cmax: 0.0515 µg/mL
  Tmax: 2.99 h
[2]; poor metabolizers
  Fold increase in AUC (0-12) from Day 1 to Day 8: 4.8 fold

## C=C[C@H]1C[N@@]2CC[C@H]1C[C@@H]2[C@@H](O)c1ccnc2ccc(OC)cc12 [Quinidine, quinidine]
[3]; 28 days, twice daily
  Subjects with dizziness: 2.7%
  Subjects with nausea: 8.1%
  Subjects with somnolence: 0%
[3]; human, in vivo, 29 days
  Subjects who withdrew because of adverse events: 8.1%
[3]; judged not related to the study drug
  Subjects reporting serious adverse events: only other serious adverse event
[2]
  Tmax: 1.71 h
